Laboratory results taken from US11066392B2, “Inhibitors of indoleamine 2,3-dioxygenase and methods of their use” (BRISTOL-MYERS SQUIBB COMPANY, priority 2017, dated 2021).
Like-named read-outs stand apart in the source and are kept apart here.

Key:
[1] = target: indoleamine 2,3-dioxygenase (IDO) (Homo sapiens, UniProt P14902); test: HeLa cell-based indoleamine 2,3-dioxygenase (IDO) assay (kynurenine production, IFNγ-stimulated); settings: HeLa cells
human IDO1 = target: T1, human IDO1 (Homo sapiens, UniProt P14902); test: HEK293 cell-based indoleamine 2,3-dioxygenase (IDO) assay; settings: human IDO1/HEK293 cells
T1 construct: expressed in transfected cells
Experimental: Assessment of inhibitor activity in HEK293 cell-based indoleamine 2,3-dioxygenase (IDO) assay.
HEK293 cells were transfected with a pCDNA-based mammalian expression vector harboring human IDO1 cDNA (NM 002164.2) by electroporation. They were cultured in medium (DMEM with 10% FBS) containing 1 mg/ml G418 for two weeks. Clones of HEK293 cells that stably expressed human IDO1 protein were selected and expanded for IDO inhibition assay.
The human IDO1/HEK293 cells were seeded at 10,000 cells per 50 μL per well with RPMI/phenol red free media contains 10% FBS in a 384-well black wall clear bottom tissue culture plate (Matrix Technologies LLC) 100 nL of certain concentration of compound was then added to each well using ECHO liquid handling systems. The cells were incubated for 20 hours in 37° C. incubator with 5% CO2.
The compound treatments were stopped by adding trichloroacetic acid (Sigma-Aldrich) to a final concentration at 0.2%. The cell plate was further incubated at 50° C. for 30 minute. The equal volume supernatant (20 μL) and 0.2% (w/v) Ehrlich reagent (4-dimethylaminobenzaldehyde, Sigma-Aldrich) in glacial acetic acid were mixed in a new clear bottom 384-well plate. This plate was then incubated at room temperature for 30 minute. The absorbance at 490 nm was measured on Envision plate reader.
Compound IC50 values were calculated using the counts of 500 nM of a reference standard treatment as one hundred percent inhibition, and counts of no compound but DMSO treatment as zero percent inhibition.
Activity for compounds described herein is provided in Table 1, wherein potency levels are provided as follows: (Potency: IDO IC50: A<0.01 μM; B<0.1 μM; C<10 μM)

[2] = potency class, read-out: Patent Potency Hela IC50 A < 10 nM, B > 10 nM, C > 100 nM
[3] = IFNγ 25 ng/mL, 48 hour incubation, read-out: IDO Hela IC50
[4] = 20 hours incubation, read-out: IDO1 HEK Human IC50

T1 sequence (P14902 whole entry): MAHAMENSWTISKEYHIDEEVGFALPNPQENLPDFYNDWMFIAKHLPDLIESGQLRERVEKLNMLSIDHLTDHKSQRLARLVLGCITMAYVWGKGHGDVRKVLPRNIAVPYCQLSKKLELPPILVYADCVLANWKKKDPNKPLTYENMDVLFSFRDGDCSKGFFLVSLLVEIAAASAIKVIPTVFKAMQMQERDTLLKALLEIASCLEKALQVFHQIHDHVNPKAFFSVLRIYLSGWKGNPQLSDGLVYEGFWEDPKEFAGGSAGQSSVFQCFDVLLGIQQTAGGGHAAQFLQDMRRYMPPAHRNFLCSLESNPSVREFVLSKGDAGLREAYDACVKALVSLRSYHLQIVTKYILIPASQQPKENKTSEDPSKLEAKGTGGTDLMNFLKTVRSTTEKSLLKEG
indoleamine 2,3-dioxygenase (IDO), sequence (P14902 whole entry): as above

Compound | IC50 [1, 2] [µM] | IC50 (human IDO1; potency class, read-out: Patent Potency HEK IC50 A < 10 nM, B > 10 nM, C > 100 nM) [µM] | IC50 [1, 3] [µM] | IC50 (human IDO1; [4]) [µM]
CC[C@@H](NC(=O)c1ccc(OC)nc1)[C@H]1CC[C@@H](c2ccnc3ccc(F)cc32)CC1 (single isomer, unassigned) [Example 10b, N-(1-(4-(6-Fluoroquinolin-4-yl)cyclohexyl)propyl)-6-methoxynicotinamide] | < 0.01 | < 0.01 | – | –
COc1ccc(-c2ccc(C(=O)N[C@H](C)[C@H]3CC[C@@H](c4ccnc5ccc(F)cc54)CC3)cn2)cn1 [Example 1, N—((R)-1-((1s,4s)-4-(6-Fluoroquinolin-4-yl)cyclohexyl)ethyl)-6′-methoxy-2,3′-bipyridine-5-carboxamide] | – | – | 0.03 | 0.056
Cc1ncc(C(=O)N[C@H](C)[C@H]2CC[C@@H](c3ccnc4ccc(F)cc43)CC2)cn1 [Example 9, N-((R)-1-((1s,4S)-4-(6-Fluoroquinolin-4-yl)cyclohexyl)ethyl)-2-methylpyrimidine-5-carboxamide] | – | – | – | 0.028
C[C@@H](NC(=O)c1cnccn1)[C@H]1CC[C@@H](c2ccnc3ccc(F)cc32)CC1 [Example 35, N-((R)-1-((cis)-4-(6-fluoroquinolin-4-yl)cyclohexyl)ethyl)pyrazine-2-carboxamide] | – | – | 0.01 | 0.022
C[C@@H](NC(=O)c1cncnc1)[C@H]1CC[C@@H](c2ccnc3ccc(F)cc32)CC1 [Example 36, N-((R)-1-((cis)-4-(6-fluoroquinolin-4-yl)cyclohexyl)ethyl)pyrimidine-5-carboxamide] | – | – | 0.03 | 0.039

Now from value to compound:

IC50 [1, 2] [µM] | IC50 (human IDO1; potency class, read-out: Patent Potency HEK IC50 A < 10 nM, B > 10 nM, C > 100 nM) [µM] | IC50 [1, 3] [µM] | IC50 (human IDO1; [4]) [µM] | Compound
< 0.01 | – | – | 0.001 | COc1ccc(C(=O)N[C@H](C)[C@H]2CC[C@@H](c3ccnc4ccc(F)cc43)CC2)cn1 [Example 2, N-((R)-1-((1s,4S)-4-(6-Fluoroquinolin-4-yl)cyclohexyl)ethyl)-6-methoxynicotinamide]
– | – | 0.01 | 0.011 | C[C@@H](NC(=O)c1ccc(-n2cccn2)nc1)[C@H]1CC[C@@H](c2ccnc3ccc(F)cc32)CC1 [Example 4, N-((R)-1-((1s,4S)-4-(6-Fluoroquinolin-4-yl)cyclohexyl)ethyl)-6-(1H-pyrazol-1-yl)nicotinamide]
< 0.01 | – | – | 0.01 | C[C@@H](NC(=O)c1ccc(Cl)nc1)[C@H]1CC[C@@H](c2ccnc3ccc(F)cc32)CC1 [Example 5, 6-Chloro-N-((R)-1-((1s,4S)-4-(6-fluoroquinolin-4-yl)cyclohexyl)ethyl)nicotinamide]
– | – | 0.01 | 0.005 | C[C@@H](NC(=O)c1ccc(F)nc1)[C@H]1CC[C@@H](c2ccnc3ccc(F)cc32)CC1 [Example 7, 6-Fluoro-N-((R)-1-((1s,4S)-4-(6-fluoroquinolin-4-yl)cyclohexyl)ethyl)nicotinamide]
– | – | 0.01 | 0.005 | COc1ncc(C(=O)N[C@H](C)[C@H]2CC[C@@H](c3ccnc4ccc(F)cc43)CC2)cn1 [Example 8, N-((R)-1-((1s,4S)-4-(6-Fluoroquinolin-4-yl)cyclohexyl)ethyl)-2-methoxypyrimidine-5-carboxamide]
– | – | 0.01 | 0.01 | C[C@@H](NC(=O)c1cccnc1)[C@H]1CC[C@@H](c2ccnc3ccc(F)cc32)CC1 [Example 33, N—((R)-1-((cis)-4-(6-fluoroquinolin-4-yl)cyclohexyl)ethyl)nicotinamide]
– | – | 0.01 | 0.013 | C[C@@H](NC(=O)c1ccncc1)[C@H]1CC[C@@H](c2ccnc3ccc(F)cc32)CC1 [Example 34, N-((R)-1-((cis)-4-(6-fluoroquinolin-4-yl)cyclohexyl)ethyl)isonicotinamide]
